Reference: the supplement of paper PMC10307832

How the values were obtained:
Test in all cases: relative viability (nuclei count vs DMSO), 5 days (fraction); higher = more cells survive
[1] = compound: C1CC(C2=C(C1)C3=C(N2)C=CC(=C3)Cl)C(=O)N [Selisistat] + C[C@]1(O)C[C@@H](c2nc(-c3ccc4ccc(-c5ccccc5)nc4c3)c3c(N)nccn32)C1 [Linsitinib] (partner 1 µM)
Summary of the method: (§1)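 Lung cancer cell lines were seeded in 1536-well plates and dosed by pin tool the next day, with either a single drug or a fixed anchor-drug dose combined with five library-drug doses (not always all listed) spaced in √10 steps. Five days later, one step fixed the cells and stained their nuclei (final 0.05% Triton X-100, 1% formaldehyde, 1 ug/ml Hoechst), and nuclei were counted on 4× images. Relative viability is the nuclei count in treated wells divided by the count in vehicle wells, and each value is the median of duplicate plates.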

[2] = compound: c1ccc2c(CCNc3ccc(Nc4ccncc4)cc3)c[nH]c2c1 [Serdemetan] + C[C@@H](Oc1cc(-c2cnn(C3CCNCC3)c2)cnc1N)c1c(Cl)ccc(F)c1Cl [Crizotinib] (partner 1 µM)
Summary of the method: as §1

[3] = compound: c1ccc2c(CCNc3ccc(Nc4ccncc4)cc3)c[nH]c2c1 [Serdemetan] + Nc1nc2[nH]cc(CCc3ccc(C(=O)N[C@@H](CCC(=O)O)C(=O)O)cc3)c2c(=O)[nH]1 [Pemetrexed] (partner 0.2 µM)
Summary of the method: as §1

[4] = compound: c1ccc2c(CCNc3ccc(Nc4ccncc4)cc3)c[nH]c2c1 [Serdemetan] + O=C(c1cc(Cc2n[nH]c(=O)c3ccccc23)ccc1F)N1CCN(C(=O)C2CC2)CC1 [Olaparib] (partner 8 µM)
Summary of the method: as §1

Cell Line: 201T
- relative viability ([1]; first compound 0.4 µM): 1.08
- relative viability ([1]; first compound 1.265 µM): 1.02
- relative viability ([1]; first compound 4 µM): 0.998
- relative viability ([1]; first compound 12.65 µM): 0.967
- relative viability ([1]; first compound 40 µM): 1.06
- relative viability ([2]; first compound 0.04 µM): 1.05
- relative viability ([2]; first compound 0.1265 µM): 1.03
- relative viability ([2]; first compound 0.4 µM): 0.948
- relative viability ([2]; first compound 1.265 µM): 0.927
- relative viability ([2]; first compound 4 µM): 0.879
- relative viability ([3]; first compound 0.04 µM): 0.306
- relative viability ([3]; first compound 0.1265 µM): 0.287
- relative viability ([3]; first compound 0.4 µM): 0.29
- relative viability ([3]; first compound 1.265 µM): 0.332
- relative viability ([3]; first compound 4 µM): 0.353
- relative viability ([4]; first compound 0.04 µM): 0.821
- relative viability ([4]; first compound 0.1265 µM): 0.8
- relative viability ([4]; first compound 0.4 µM): 0.822
- relative viability ([4]; first compound 1.265 µM): 0.543
- relative viability ([4]; first compound 4 µM): 0.492

Cell Line: NCI-H460
- relative viability ([1]; first compound 0.4 µM): 0.848
- relative viability ([1]; first compound 1.265 µM): 0.663
- relative viability ([1]; first compound 12.65 µM): 0.821
- relative viability ([1]; first compound 40 µM): 0.824
- relative viability ([2]; first compound 0.04 µM): 0.842
- relative viability ([2]; first compound 0.1265 µM): 0.866
- relative viability ([2]; first compound 0.4 µM): 0.836
- relative viability ([2]; first compound 1.265 µM): 0.154
- relative viability ([2]; first compound 4 µM): 0.075
- relative viability ([3]; first compound 0.04 µM): 0.0612
- relative viability ([3]; first compound 0.1265 µM): 0.0565
- relative viability ([3]; first compound 0.4 µM): 0.0655
- relative viability ([3]; first compound 1.265 µM): 0.0326
- relative viability ([3]; first compound 4 µM): 0.064
- relative viability ([4]; first compound 0.04 µM): 0.342
- relative viability ([4]; first compound 0.1265 µM): 0.344
- relative viability ([4]; first compound 0.4 µM): 0.349
- relative viability ([4]; first compound 1.265 µM): 0.182
- relative viability ([4]; first compound 4 µM): 0.148

Cell Line: NCI-H661
- relative viability ([1]; first compound 0.4 µM): 0.596
- relative viability ([1]; first compound 1.265 µM): 0.609
- relative viability ([1]; first compound 4 µM): 0.52
- relative viability ([1]; first compound 12.65 µM): 0.488
- relative viability ([1]; first compound 40 µM): 0.588
- relative viability ([2]; first compound 0.04 µM): 1.01
- relative viability ([2]; first compound 0.4 µM): 0.977
- relative viability ([2]; first compound 4 µM): 0.987
- relative viability ([3]; first compound 0.04 µM): 0.968
- relative viability ([3]; first compound 0.1265 µM): 0.902
- relative viability ([3]; first compound 0.4 µM): 0.877
- relative viability ([3]; first compound 1.265 µM): 0.786
- relative viability ([3]; first compound 4 µM): 0.806
- relative viability ([4]; first compound 0.04 µM): 0.711
- relative viability ([4]; first compound 0.1265 µM): 0.648
- relative viability ([4]; first compound 0.4 µM): 0.634
- relative viability ([4]; first compound 1.265 µM): 0.549
- relative viability ([4]; first compound 4 µM): 0.558

Cell Line: HCC-15
- relative viability ([1]; first compound 0.4 µM): 1.03
- relative viability ([1]; first compound 1.265 µM): 0.918
- relative viability ([1]; first compound 12.65 µM): 0.902
- relative viability ([1]; first compound 40 µM): 0.696
- relative viability ([2]; first compound 0.04 µM): 0.795
- relative viability ([2]; first compound 0.1265 µM): 0.852
- relative viability ([2]; first compound 0.4 µM): 0.743
- relative viability ([2]; first compound 1.265 µM): 0.584
- relative viability ([2]; first compound 4 µM): 0.58
- relative viability ([3]; first compound 0.04 µM): 0.216
- relative viability ([3]; first compound 0.1265 µM): 0.195
- relative viability ([3]; first compound 0.4 µM): 0.215
- relative viability ([3]; first compound 1.265 µM): 0.226
- relative viability ([3]; first compound 4 µM): 0.213
- relative viability ([4]; first compound 0.04 µM): 0.673
- relative viability ([4]; first compound 0.1265 µM): 0.667
- relative viability ([4]; first compound 0.4 µM): 0.57
- relative viability ([4]; first compound 1.265 µM): 0.38
- relative viability ([4]; first compound 4 µM): 0.386

Cell Line: LCLC-103H
- relative viability ([1]; first compound 0.4 µM): 1.13
- relative viability ([1]; first compound 1.265 µM): 1.15
- relative viability ([1]; first compound 4 µM): 1.07
- relative viability ([1]; first compound 12.65 µM): 1.03
- relative viability ([1]; first compound 40 µM): 1.01
- relative viability ([2]; first compound 0.04 µM): 0.977
- relative viability ([2]; first compound 0.1265 µM): 1.12
- relative viability ([2]; first compound 0.4 µM): 0.979
- relative viability ([2]; first compound 1.265 µM): 0.94
- relative viability ([2]; first compound 4 µM): 0.995
- relative viability ([3]; first compound 0.04 µM): 0.447
- relative viability ([3]; first compound 0.1265 µM): 0.49
- relative viability ([3]; first compound 0.4 µM): 0.481
- relative viability ([3]; first compound 1.265 µM): 0.386
- relative viability ([3]; first compound 4 µM): 0.454
- relative viability ([4]; first compound 0.04 µM): 0.742
- relative viability ([4]; first compound 0.1265 µM): 0.727
- relative viability ([4]; first compound 0.4 µM): 0.661
- relative viability ([4]; first compound 1.265 µM): 0.593
- relative viability ([4]; first compound 4 µM): 0.728

Cell Line: NCI-H441
- relative viability ([1]; first compound 0.4 µM): 0.648
- relative viability ([1]; first compound 1.265 µM): 0.639
- relative viability ([1]; first compound 4 µM): 0.502
- relative viability ([1]; first compound 12.65 µM): 0.448
- relative viability ([1]; first compound 40 µM): 0.554
- relative viability ([2]; first compound 0.04 µM): 0.721
- relative viability ([2]; first compound 0.1265 µM): 0.713
- relative viability ([2]; first compound 0.4 µM): 0.649
- relative viability ([2]; first compound 1.265 µM): 0.487
- relative viability ([2]; first compound 4 µM): 0.596
- relative viability ([3]; first compound 0.04 µM): 0.262
- relative viability ([3]; first compound 0.1265 µM): 0.293
- relative viability ([3]; first compound 0.4 µM): 0.257
- relative viability ([3]; first compound 1.265 µM): 0.202
- relative viability ([3]; first compound 4 µM): 0.225
- relative viability ([4]; first compound 0.04 µM): 0.513
- relative viability ([4]; first compound 0.1265 µM): 0.422
- relative viability ([4]; first compound 0.4 µM): 0.5
- relative viability ([4]; first compound 1.265 µM): 0.3
- relative viability ([4]; first compound 4 µM): 0.281

Cell Line: EPLC-272H
- relative viability ([1]; first compound 0.4 µM): 1.24
- relative viability ([1]; first compound 1.265 µM): 1.2
- relative viability ([1]; first compound 12.65 µM): 1
- relative viability ([1]; first compound 40 µM): 1.2
- relative viability ([2]; first compound 0.04 µM): 0.939
- relative viability ([2]; first compound 0.1265 µM): 0.692
- relative viability ([2]; first compound 0.4 µM): 0.868
- relative viability ([2]; first compound 1.265 µM): 0.612
- relative viability ([2]; first compound 4 µM): 0.837
- relative viability ([3]; first compound 0.04 µM): 0.316
- relative viability ([3]; first compound 0.1265 µM): 0.367
- relative viability ([3]; first compound 0.4 µM): 0.342
- relative viability ([3]; first compound 1.265 µM): 0.269
- relative viability ([3]; first compound 4 µM): 0.374
- relative viability ([4]; first compound 0.04 µM): 0.837
- relative viability ([4]; first compound 0.1265 µM): 0.883
- relative viability ([4]; first compound 0.4 µM): 0.714
- relative viability ([4]; first compound 1.265 µM): 0.676
- relative viability ([4]; first compound 4 µM): 0.641
